Measurements: patent publication US6420385B1, “Substituted pyrimidinone and pyridone compounds and methods of use” (Amgen Inc., priority 1996, dated 2002)

system: TNF production by monocytes activated with bacterial lipopolysaccharide (LPS); test: Lipopolysaccharide-activated monocyte TNF production assay (LPS induced TNF release); format: cell-based, human; conditions: Homo sapiens, Monocyte, TNF in supernatant by ELISA
Procedure: Lipopolysaccharide-activated Monocyte TNF Production Assay
Test compounds were evaluated in vitro for the ability to inhibit the production of TNF by monocytes activated with bacterial lipopolysaccharide (LPS). Fresh residual source leukocytes (a byproduct of plateletpheresis) were obtained from a local blood bank, and peripheral blood mononuclear cells (PBMCs) were isolated by density gradient centrifugation on Ficol-Paque Plus (Pharmacia). PBMCs were suspended at 2×10^6/ ml in DMEM supplemented to contain 2% FCS, 10 mM, 0.3 mg/ml glutamate, 100 U/ml penicillin G and […] streptomycin sulfate (complete media). Cells were plated into Falcon flat bottom, 96 well culture plates (200 μl/well) and cultured overnight at 37° C. and 6% CO2. Non-adherent cells were removed by washing with 200 μl/well of fresh medium. Wells containing adherent cells (˜70% monocytes) were replenished with 100 μl of fresh medium.
Preparation of Test Compound Stock Solutions
Test compounds were dissolved in […]. Compound stock solutions were prepared to an initial concentration of […]. Stocks were diluted initially to 20-200 μM in complete media. Nine two-fold serial dilutions of each compound were then prepared in complete medium.
Treatment of Cells with Test Compounds and Activation of TNF Production with Lipopolysaccharide
One hundred microliters of each test compound dilution were added to microtiter wells containing adherent monocytes and 100 μl complete medium. Monocytes were cultured with test compounds for 60 min at which time 25 μl of complete medium containing 30 ng/ml lipopolysaccharide from E. coli K532 were added to each well. Cells were cultured an additional 4 hrs. Culture supernatants were then removed and TNF presence in the supernatants was quantified using an ELISA.
Flat bottom, 96 well Corning High Binding ELISA plates were coated overnight (4° C.) with 150 μL/well of 3 μg/ml murine anti-human TNF-α MAb (R&D Systems #MAB210). Wells were then blocked for 1 hr at room temperature with 200 μL/well of CaCl2-free ELISA buffer supplemented to contain 20 mg/ml BSA (standard ELISA buffer: […], 150 mM NaCl, 2 mM CaCl2, 0.15 mM thimerosal, pH 7.4). Plates were washed and replenished with 100 μl of test supernatants (diluted 1:3) or standards. Standards consisted of eleven 1.5-fold serial dilutions from a stock of 1 ng/ml recombinant human TNF (R&D Systems). Plates were incubated at room temperature for 1 hr on orbital shaker (300 rpm), washed and replenished with 100 μl/well of 0.5 μg/ml goat anti-human TNF-α (R&D systems #AB-210-NA) biotinylated at a 4:1 ratio. Plates were incubated for 40 min, washed and replenished with 100 μl/well of alkaline phosphatase-conjugated streptavidin (Jackson ImmunoResearch #016-050-084) at 0.02 μg/ml. Plates were incubated 30 min, washed and replenished with 200 μl/well of 1 mg/ml of p-nitrophenyl phosphate. After 30 min, plates were read at […] on a Vmax plate reader.
Standard curve data were fit to a second order polynomial and unknown TNF-α concentrations determined from their OD by solving this equation for concentration. TNF concentrations were then plotted vs. test compound concentration using a second order polynomial. This equation was then used to calculate the concentration of test compounds causing a 50% reduction in TNF production.

Structure (SMILES) | IC50 [µM]
O=c1[nH]c(-c2ccccc2)cc(-c2ccncc2)c1-c1ccccc1 [3,6-Diphenyl-4-(4-pyridyl)-2(1H)-pyridone] | ≤ 20
O=c1[nH]c(-c2cccs2)cc(-c2ccncc2)c1-c1ccccc1 [3-Phenyl-4-(4-pyridyl)-6-(2-thienyl)-2(1H)-pyridone] | ≤ 20
Cc1ccc(-c2cc(-c3ccncc3)c(-c3ccccc3)c(=O)[nH]2)c(C)c1 [6-(2,4-Dimethylphenyl)-3-phenyl-4-(4-pyridyl)-2(1H)-pyridone] | ≤ 20
O=c1[nH]c(-c2ccco2)cc(-c2ccncc2)c1-c1ccccc1 [6-(2-Furyl)-3-phenyl-4-(4-pyridyl)-2(1H)-pyridone] | ≤ 20
Cc1ccc(-c2cc(-c3ccncc3)c(-c3ccccc3)c(=O)[nH]2)cc1 [6-(4-Methylphenyl)-3-phenyl-4-(4-pyridyl)-2(1H)-pyridone] | ≤ 20

same assay, conditions: TNF in supernatant by ELISA

Structure (SMILES) | IC50 [µM]
Cc1ccccc1C(N)CCNc1nc(-c2ccncc2)c(-c2cccc(C(F)(F)F)c2)c(=O)n1C (stereo not shown) [2-((3-Amino-3-(2-methylphenyl)propyl)-amino)-3-methyl-6-(4-pyridyl)5-(3-trifluoromethylphenyl)-4-(3H)-pyrimidinone] | ≤ 5
Cn1c(NCCC(N)c2ccccc2)nc(-c2ccncc2)c(-c2cccc(C(F)(F)F)c2)c1=O (stereo not shown) [2-((3-Amino-3-phenylpropyl)-amino)-3-methyl-6-(4-pyridyl)5-(3-trifluoromethylphenyl)-4-(3H)-pyrimidinone] | ≤ 5
